Measured values as given in patent US20180318241A1, “TREATMENT OF NERVOUS SYSTEM DISORDERS USING THYROID HORMONE NEUTRAL DOSES OF RXR AGONISTS” (Io Therapeutics, Inc., priority 2015, published 2018).
“Also recorded” adds a separate entry of the source.

Tests used:
RXRγ = target: T1, RXRγ (Homo sapiens, UniProt P48443); test: RXR homodimer transactivation assay (rCRBPII/RXRE-tk-Luc) in CV-1 cells; format: cell-based
T1 construct: an expression construct including a full length RXRα, RXRβ, or RXRγ; expressed in transfected cells; host or cells: CV-1
T1 sequence (P48443 1-463): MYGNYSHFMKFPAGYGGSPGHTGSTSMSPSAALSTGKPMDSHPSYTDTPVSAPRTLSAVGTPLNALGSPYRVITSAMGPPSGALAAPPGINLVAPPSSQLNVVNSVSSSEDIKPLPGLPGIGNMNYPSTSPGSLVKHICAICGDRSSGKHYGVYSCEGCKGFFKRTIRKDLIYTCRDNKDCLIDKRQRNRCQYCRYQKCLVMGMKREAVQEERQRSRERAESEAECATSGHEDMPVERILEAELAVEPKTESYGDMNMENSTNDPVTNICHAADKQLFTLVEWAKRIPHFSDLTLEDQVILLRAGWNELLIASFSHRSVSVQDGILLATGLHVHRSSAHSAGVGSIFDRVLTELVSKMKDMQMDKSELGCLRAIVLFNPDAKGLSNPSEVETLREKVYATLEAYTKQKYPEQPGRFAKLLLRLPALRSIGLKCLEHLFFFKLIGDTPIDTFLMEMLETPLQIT
Description: To determine whether a RXR agonist can mediate its effects via RXRα receptor homodimers, RXRβ receptor homodimers, RXRγ receptor homodimers, or any combination thereof, or the corresponding RAR/RXR heterodimers, receptor-mediated transactivation assays were performed. For transactivation assays assessing RXR homodimer signaling, CV-1 cells were transfected with 1) an expression construct including a full length RXRα, RXRβ, or RXRγ; and 2) a rCRBPII/RXRE-tk-Luc reporter construct that included RXR homodimer-specific RXRE/DR1 responsive element linked to a luciferase gene. For transactivation assays assessing RAR/RXR heterodimer signaling, CV-1 cells were transfected with 1) an expression construct comprising a fusion protein including an estrogen receptor (ER) DNA binding domain linked to the ligand binding domain of RARα, RARβ, or RARγ and 2) a ERE-tk-Luc reporter construct that included an estrogen receptor responsive element linked to a luciferase gene. The ER-RAR fusion proteins provided an accurate readout of only the transfected ER-RAR. […] Data are mean values±SE from five independent experiments.

RARα = RARα (Homo sapiens, UniProt P10276); details: RARs (α, β, γ), at ≥1 μM
Description: To determine whether a RXR agonist can mediate its effects via RXRα receptor homodimers, RXRβ receptor homodimers, RXRγ receptor homodimers, or any combination thereof, or the corresponding RAR/RXR heterodimers, receptor-mediated transactivation assays were performed. For transactivation assays assessing RXR homodimer signaling, CV-1 cells were transfected with 1) an expression construct including a full length RXRα, RXRβ, or RXRγ; and 2) a rCRBPII/RXRE-tk-Luc reporter construct that included RXR homodimer-specific RXRE/DR1 responsive element linked to a luciferase gene. For transactivation assays assessing RAR/RXR heterodimer signaling, CV-1 cells were transfected with 1) an expression construct comprising a fusion protein including an estrogen receptor (ER) DNA binding domain linked to the ligand binding domain of RARα, RARβ, or RARγ and 2) a ERE-tk-Luc reporter construct that included an estrogen receptor responsive element linked to a luciferase gene. […] Data are mean values±SE from five independent experiments.

EAE in B6 mice = test: EAE dose titration in B6 mice with spleen and CNS analysis; format: in vivo; details: 200 μg/day vs vehicle
Description: A dose titration experiment was also conducted in EAE mice. EAE was induced in 28 B6 mice with MOG/CFA and PT as above. Mice were scored on day 7 as indicated above and divided into groups by score so means are as equal as possible.
At the completion of the experiment, the vehicle control and 200 μg/day groups were euthanized and spleen and CNS samples obtained.

EAE in SJL mice = test: EAE in SJL mice; format: in vivo; details: 50 μg i.p. every other day, day 8 to day 14
Description: To determine whether a RXR agonist can attenuate multiple sclerosis, SJL mice were immunized to induce EAE by s.c. injection at the base of their spine with 200 μL of adjuvant containing 200 μg proteolipid proteins (139-151) (PLP peptide; Peptides International, Louisville, Ky.) and 400 μg of non-viable M. tuberculosis H37 desiccate emulsified in a mixture of incomplete Freund's adjuvant and PBS. Mice were also given 150 ng of pertussis toxin in PBS i.p. on the same day as PLP emulsion injection and 2 days later. […] Mice were scored using the scale described in Example 3.

FXR/RXR = target: T2, FXR/RXR (Homo sapiens, UniProt P19793); test: Permissive heterodimer transactivation assay in CV-1 cells; format: cell-based; details: 20 hr, relative to GW4064
T2 construct: expressed in transfected cells; host or cells: CV-1
T2 sequence (P19793 1-462): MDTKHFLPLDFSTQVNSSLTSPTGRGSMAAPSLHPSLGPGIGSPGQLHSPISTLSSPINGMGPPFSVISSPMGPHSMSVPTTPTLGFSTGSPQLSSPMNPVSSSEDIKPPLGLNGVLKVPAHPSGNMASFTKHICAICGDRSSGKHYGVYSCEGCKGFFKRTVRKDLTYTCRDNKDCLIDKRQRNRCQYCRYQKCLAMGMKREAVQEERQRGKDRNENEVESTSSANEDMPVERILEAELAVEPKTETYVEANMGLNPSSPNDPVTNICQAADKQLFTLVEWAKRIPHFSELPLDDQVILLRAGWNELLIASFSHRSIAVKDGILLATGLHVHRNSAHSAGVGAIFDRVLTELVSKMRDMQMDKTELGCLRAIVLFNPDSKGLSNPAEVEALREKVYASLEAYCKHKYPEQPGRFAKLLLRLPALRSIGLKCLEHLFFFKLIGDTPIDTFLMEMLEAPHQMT
T2 sequence (Q96RI1 1-486 partner): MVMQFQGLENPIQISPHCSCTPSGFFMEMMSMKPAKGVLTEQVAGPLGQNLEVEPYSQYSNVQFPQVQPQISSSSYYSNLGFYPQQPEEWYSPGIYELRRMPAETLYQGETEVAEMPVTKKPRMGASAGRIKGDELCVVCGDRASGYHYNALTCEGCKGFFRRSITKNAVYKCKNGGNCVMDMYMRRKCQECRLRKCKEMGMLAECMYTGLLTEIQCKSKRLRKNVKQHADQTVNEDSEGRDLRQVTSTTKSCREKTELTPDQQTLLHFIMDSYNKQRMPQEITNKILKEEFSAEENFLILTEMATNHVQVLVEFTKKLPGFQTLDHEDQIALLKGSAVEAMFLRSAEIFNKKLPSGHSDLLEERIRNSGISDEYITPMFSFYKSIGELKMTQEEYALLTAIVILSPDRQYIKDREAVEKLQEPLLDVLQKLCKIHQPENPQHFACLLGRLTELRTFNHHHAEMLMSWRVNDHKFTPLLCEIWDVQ
Description: (§1) For PPARγ: CV-1 cells were transfected with 3×(rAOX/DR1)-tk-Luc reporter gene and an expression vector for PPARγ. For FXR:CV-1 cells were transfected with 3×(IBABP/IRI)-tk-Luc reporter gene and vectors for FXR and RXRα. For LXR:CV-1 cells were transfected with 3×(PLTP/LXRE)-tk-Luc reporter gene with vectors for LXRα or LXRβ. For Nurr1: COS7 cells were transfected with 3×NBRE-tk-luc reporter gene and full length Nurr-1 with or without full-length RXRα plasmid. […] Luciferase data were normalized to co-transfected β-gal activity. Luciferase activity was expressed as percent of maximal activity obtained using specific agonists. Rosiglitazone (PPARγ), GW4064 (FXR), T0901317 (LXR).

LXRα/RXR = test: as above; format: cell-based; details: 20 hr, relative to T0901317
Description: as §1

LXRβ/RXR = test: as above; format: cell-based; details: 20 hr, relative to T0901317
Description: as §1

Nurr1/RXR = Nurr1/RXR (Homo sapiens, UniProt P19793); test: Permissive heterodimer transactivation assay in COS7 cells; format: cell-based
Description: as §1

[1] = system: oligodendrocyte precursor cells (OPCs); test: OPC differentiation into oligodendrocytes (PLP-EGFP); format: cell-based, mouse
Description: OPCs were generated from a neurosphere culture of E14.5 PLP-EGFP (on C57BL/6J background) mouse brains. […] The EGFP expressing cells were quantified with Cellomics Neuronal Profiling Algorithm.
The EGFP expressing cells in controls and all compounds were quantified with Cellomics Neuronal Profiling Algorithm.

[2] = system: ethidium bromide induced demyelination of caudal cerebellar peduncles in rats; test: Focal ethidium bromide induced demyelination, remyelination analysis; format: in vivo, rat
Description: The experiment uses rats of relatively advanced age (1 year) since such rats undergo remyelination in a less efficient manner, thereby providing data that are more relevant to the clinical treatment of human patients with multiple sclerosis or other demyelination disorders.
Focal demyelination is induced in one year old rats (approximately 300 g in weight) by injecting stereotactically 5 μl of ethidium bromide solution (0.01% vol/vol in saline) in a bilateral manner into the caudal cerebellar peduncles (CCP). […] The rats are killed on day 24 post-ethidium bromide treatment for analysis of remyelination by quantitative polymerase chain reaction (qPCR) and microscopy. Serum T4 levels are determined before initiation of treatment and weekly thereafter and at study termination.

[3] = system: cuprizone+rapamycin demyelination in C57BL/6J mice; test: Cuprizone/rapamycin 12-week demyelination model, remyelination; format: in vivo, mouse; details: 10 mg/kg PO daily for 6 weeks after 12 weeks CR
Description: All animals were sacrificed after 12 weeks of CR or after further 6 weeks of treatment to evaluate myelin in white matter (corpus callosum) and gray matter (hippocampus and cortex). In addition, the size of myelinated axons was quantified and the large myelinated axons were further assessed by 3D-electron microscopy (3D-EM). A total of 40 animals were included in the study, where all 40 animals received CR demyelination for 12 weeks. After demyelination, a subset (n=10) of animals are sacrificed to serve as controls to assess baseline demyelination. […] Floating brain sections are immunostained with myelin prolipid protein (PLP) to visualize and quantify myelin in gray matter, hippocampus (FIG. 16A) and cortex (FIG. 16B).

[4] = system: cuprizone+rapamycin demyelination in C57BL/6J mice; format: in vivo; details: 6 weeks concurrent with CR
Description: Animals (8 week-old male C57BL/6J mice) were subjected to cuprizone diet plus rapamycin injections (CR) for 6 weeks to induce demyelination. […] All animals were sacrificed after 6 weeks of CR to evaluate axonal integrity and microglial/macrophage activity in the white matter (corpus callosum, CC).
A total of 50 animals were included in the study, where 43 animals received CR demyelination for 6 weeks. During demyelination, a subset (n=7) of animals were kept on normal diet to serve as naïve age-matched controls.

[5] = system: multiple sclerosis (MS) patients; test: Placebo-controlled clinical trial of thyroid hormone neutral doses in relapsing-remitting MS; format: in vivo, human; details: 30 to 180 days
Description: Patients with relapsing-remitting MS are recruited to participate in the clinical trial and are provided informed consent describing risks and potential benefits of participation. […] Patients are dosed for a minimum of 30 days, and as long as 180 days. […] Serum T4 levels will continue to be determined on a weekly basis.
Patients are assessed for the status of myelin damage and speed of repair of demyelination in MS lesions that occur over this period of time in their brains, spinal cords, and/or optic nerves. Quantitation of myelin damage and repair is performed at baseline and periodically through the dosing, using specialized imaging methods, which specifically examine and quantitate myelin damage and repair in these parts of the nervous system. […] This compound is useful for useful for quantitating myelin repair. […] In addition to the quantitation of myelin damage and repair by imaging methods, the clinical status of the MS patients' disease progression is preliminarily evaluated using standard clinical endpoints for MS clinical trials, such as the Expanded Disability Status Scale (EDSS). The EDSS is a 10 point scale which quantitates the MS patients' levels of disability by evaluating physical activities of daily life, such as walking, swallowing, bowel and bladder function, etc.

Sequence of Nurr1/RXR (P43354 whole entry partner, one chain of several): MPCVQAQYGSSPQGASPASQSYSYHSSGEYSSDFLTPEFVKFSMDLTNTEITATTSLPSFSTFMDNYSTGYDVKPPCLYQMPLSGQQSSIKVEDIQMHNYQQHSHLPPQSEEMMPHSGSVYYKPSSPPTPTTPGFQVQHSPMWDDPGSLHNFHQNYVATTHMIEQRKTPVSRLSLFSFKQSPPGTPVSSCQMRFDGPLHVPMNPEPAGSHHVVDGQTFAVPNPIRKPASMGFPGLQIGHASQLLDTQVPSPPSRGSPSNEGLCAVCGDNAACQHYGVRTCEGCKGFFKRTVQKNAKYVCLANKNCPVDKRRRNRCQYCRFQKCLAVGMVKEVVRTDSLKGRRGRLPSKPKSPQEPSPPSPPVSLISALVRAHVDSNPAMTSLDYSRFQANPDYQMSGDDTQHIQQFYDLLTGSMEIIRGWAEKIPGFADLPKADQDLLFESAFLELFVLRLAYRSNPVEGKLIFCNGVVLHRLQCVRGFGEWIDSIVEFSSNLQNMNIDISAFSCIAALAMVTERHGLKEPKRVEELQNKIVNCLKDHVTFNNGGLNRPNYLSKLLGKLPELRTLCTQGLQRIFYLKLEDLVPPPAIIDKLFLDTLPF
Sequence of RARα (P10276 183-417 limits assumed, species assumed): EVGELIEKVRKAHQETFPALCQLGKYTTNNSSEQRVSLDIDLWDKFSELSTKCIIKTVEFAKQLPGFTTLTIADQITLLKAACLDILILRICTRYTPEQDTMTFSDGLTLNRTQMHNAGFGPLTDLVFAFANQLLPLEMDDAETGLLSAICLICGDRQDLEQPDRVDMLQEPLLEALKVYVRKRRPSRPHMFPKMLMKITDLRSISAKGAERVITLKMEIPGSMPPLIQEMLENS

## CC(/C=C/[C@@H]1C[C@]1(C)c1ccc2c(c1)C(C)(C)CCC2(C)C)=C\C(=O)O [IRX4204, 3,7-dimethyl-6(S),7(S)-methano,7-[1,1,4,4-tetramethyl-1,2,3,4-tetrahydronaphth-7-yl]2(E),4(E) heptadienoic acid]
RXRγ
  Efficacy (% of 1 μM IRX4204) RXRγ: 0.09 ± 0.011 % of 1 μM IRX4204
RARα
  activity detected at RARs: minimal activity
EAE in B6 mice
  co-expression of IFNγ and IL-17A by CD4 T cells in CNS: not significantly different
EAE in B6 mice; spleen
  CCR6 expression on CD4 T cells: lowered
  CD4+CD25hi cells (number): reduced
  CD4+CD25hi cells frequency: not altered
  CD49d expression on CD4 T cells: lowered CCR6, but not CD49d
  total number of recently activated CD4 T cells (CD69 and CD44): decreased
EAE in SJL mice
  symptoms of EAE: significantly reduces the symptoms of EAE
FXR/RXR
  activation of FXR/RXR heterodimer: not to transactivate; also recorded: does not activate
LXRα/RXR
  activation of LXRα/RXR heterodimer: not to transactivate; also recorded: does not activate
LXRβ/RXR
  activation of LXRβ/RXR heterodimer: not to transactivate; also recorded: does not activate
Nurr1/RXR
  activation of the Nurr1/RXR permissive heterodimer: selectively activates
[1]
  total cell number and pyknotic cells compared to controls: did not show any differences
[1]; all tested concentrations except the lowest concentration (1^−6 μM)
  OPC differentiation into oligodendrocytes (EGFP positive cells) compared to negative control (DMSO): significant increase in OPC differentiation into oligodendrocytes; also recorded: dose dependent increase
[2]
  Mbp and Pdgfra expression (real-time qPCR of lesion samples): increase in Mbp expression and an increase in Pdgfra expression
[2]; oral 1-10 mg/kg/day for fourteen days, relative to vehicle
  densities of Olig2+ oligodendrocyte lineage cells and CC1+ differentiated oligodendrocytes in lesions: increased
[3]
  size of myelinated axons in the corpus callosum: significant increase
[4]
  levels of Iba1 staining (microglia/macrophages) in CC compared to vehicle: no difference
  number of SMI32 stained axonal ovoids in CC compared to Vehicle: trend towards decreased number of axonal ovoids
[5]
  clinical benefit (myelin imaging, EDSS, visual acuity) compared to placebo controls: Substantial clinical benefit
